In PubChem BioAssay AID2305 (GlaxoSmithKline (GSK), 2010):
“And” between values parts separate entries of the source, which are not always exact repeats. Identical values can stand only once.

Tested on: P. falciparum 3D7 growth, pLDH absorbance
Assay: P. falciparum 3D7 growth inhibition, dose response, strain 3D7 (AID 2305)

SMILES | IC50
O=C(Nc1ccc2c(c1)CCNCC2)Nc1ccc2ccccc2c1 | 620 nM
CN(C)CCNCc1cccc(-c2cccc(-c3nc4ccccc4[nH]3)c2)c1 | 770 nM
CCCCN(CCCC)Cc1cc(N(C)c2ccc([N+](=O)[O-])cn2)ccc1O | 540 nM
O=C(NCc1ccc(Cl)cc1)c1ccc(CN2CCCN(CC3CCCCC3)CC2)cc1 | 1700 nM
Cc1ccc(F)c(CN2CCC(N3CC(c4ccccc4)(c4ccccc4)OC3=O)CC2)c1Cl | 590 nM
COc1nc2c(CCN3CC[C@H](NCc4ccc5c(c4)NC(=O)CO5)[C@H](O)C3)c(Cl)cnc2cc1F | 1020 nM
CN(C)Cc1c(O)ccc2oc(Cc3ccccc3)cc12 | 910 nM
Cn1nc(-c2cccc(CNCCc3cccs3)c2)c2cnc(NC3CCCC3)nc21 | 1890 nM
CCCC1(NC[C@@H](O)[C@H](Cc2ccccc2)NC(=O)c2cc(NCC)cc(N3CCCCS3(=O)=O)c2)CCCCC1 | 250 nM
CN1Cc2cc(NC(=O)/C=C/c3ccccc3Cl)ccc2C(C)(C)C1 | 640 nM
Nc1cccc(CNCc2cccc(-c3ccc(-c4nc5ccc(C(F)(F)F)cc5[nH]4)cc3)c2)c1 | 360 nM
CCCCCC(C)N=C(Nc1ccc([N+](=O)[O-])cc1O)Nc1ccccc1Br (configuration not stated) | 620 nM
Cc1onc(-c2ccccc2)c1-c1nc(NCCC(c2ccccc2)c2ccccc2)no1 | 840 nM
O=C(C=C1c2ccccc2-c2ccccc21)NC1CCC(CN2CCC(c3c[nH]c4ccccc34)CC2)CC1 (configuration not stated) | 790 nM and 700 nM
CCCCN(CCCC)C(=O)CC(O)c1cc2c(Cl)cc(Cl)cc2c2cc(C(F)(F)F)ccc12 (configuration not stated) | 1210 nM
COc1ccc2nccc([C@@H](O)CN3CCC(NCc4cc5ccccc5o4)CC3)c2c1 | 660 nM
COC(=O)Nc1cc(C(F)(F)F)ccc1N1CCCC(NS(=O)(=O)c2ccc(C(C)(C)C)cc2)C1 (configuration not stated) | 380 nM
CCc1nnc2sc(-c3cccc(NC(=O)c4ccc(C)c([N+](=O)[O-])c4)c3)nn12 | 1410 nM
O=C(NC1CCC(CCN2Cc3cccc(C(F)(F)F)c3C2)CC1)c1cccc(-c2cccnc2)c1 (configuration not stated) | 1020 nM
C[C@@H](Nc1nc(NCc2ccccc2)c2sccc2n1)c1ccccc1 | 920 nM
CC(C)N1CCC(N(Cc2ccc(-c3ccc(C(F)(F)F)cc3)cc2)C(=O)Cn2c(SCc3cccc(F)c3F)cc(=O)c3c2CCC3)CC1 | 1160 nM
COc1ccc(CNCC2CCC(CNCCc3ccccc3)CC2)cc1Cl (configuration not stated) | 790 nM
OCCN1CCN(c2nc(Nc3cccc(F)c3)c3cnn(-c4ccccc4)c3n2)CC1 | 830 nM
Cc1nc(-c2ccc(-c3ccc(C(=O)Nc4ccc(-n5ccnc5)c(N5CCN(C)CC5)c4)cc3)c(C)c2)no1 | 830 nM
COc1cccc(CN2CCC(C(=O)Nc3ccc(-c4nc5ccccc5[nH]4)cc3)CC2)c1 | 630 nM

SMILES | IC50
Cc1cc2nc(-c3ccc(C(=O)NC4CCN(Cc5ccccc5)CC4)s3)[nH]c2cc1C | 770 nM
CN1CCC(NCc2ccc(-c3ccc(S(=O)(=O)NCc4ccccc4)s3)cc2)CC1 | 770 nM
COc1ccc(-c2ccc(NC(=O)c3ccc(C#N)cc3)c(F)c2)cc1CN(C)CCN(C)C | 970 nM
CN1CCCN(Cc2cccc(-c3ccc(CNC(=O)c4cccc(Cl)c4)c(F)c3)c2)CC1 | 190 nM
CC1CCNc2ccc(Cc3cnc(N)nc3N)cc21 (configuration not stated) | 1040 nM
O=C(NC(Nc1ccc([N+](=O)[O-])cc1)C(Cl)(Cl)Cl)c1ccc(Cl)cc1 (configuration not stated) | 780 nM
Cc1cccc2[nH]c(-c3ccc(-c4ccc(CN5CCN(c6ccncc6)CC5)cc4)s3)nc12 | 110 nM
CCCCCc1cnc2nc(N)nc(N)c2c1 | 1230 nM
Cc1cc(N(C)C2CCN(C)CC2)nc(Nc2ccc(Br)cc2)n1 | 480 nM
O=C(NCc1cccc(C(F)(F)F)c1)C(c1cc2ccccc2o1)N1CCN(C(c2ccccc2)c2ccccc2)CC1 (configuration not stated) | 500 nM
CCCCCn1c(Sc2ccc(C#N)c([N+](=O)[O-])c2)nnc1-c1ccc(OC)cc1 | 1140 nM
O=C(Nc1cccc(-c2ccc(-c3nc4ccccc4[nH]3)cc2)c1)c1cccnc1 | 1040 nM
CN1CCN(c2ccc(Nc3ncc(Cl)c(Nc4cccnc4C(N)=O)n3)cc2)CC1 | 150 nM
CN(C)CCNC(=O)[C@H](CC1CCCCC1)NC(=O)c1ccc(O)c(-c2ccc(Cl)c(Cl)c2)c1 | 770 nM
CCc1cn2c3c(cc(C(=O)N[C@@H](Cc4ccccc4)[C@H](O)CNC4CCCC4)cc13)N(C)S(=O)(=O)CC2 | 50 nM
N#Cc1ccc(-c2ccc(C(=O)Nc3ccc4c(c3)CCN(C3CCC3)CC4)nc2)cn1 | 1160 nM
O=S(=O)(NCCN1CCCC1)c1ccc(-c2ccccc2CNC2Cc3ccccc3C2)cc1 | 850 nM
O=C(NCCCCN1CC=C(c2ccc3c(c2OCc2ccccc2)CCCC3)CC1)c1ccc(-c2ccc(C(F)(F)F)cc2)cc1 | 300 nM
COc1ccc2c(c1)CCCC2NCCCCNC(=O)c1ccc(NC(=O)c2ccc(Cl)cc2)cc1 (configuration not stated) | 380 nM
CCn1c2c(c(=N)c3ccccc31)CCC2 | 500 nM
Nc1ncc(-c2cc3ccccc3o2)c(N)n1 | 1410 nM
CC(=O)NCCCCC1NC2(C(=O)N(Cc3ccc(C(C)(C)C)cc3)c3ccccc32)C2C(=O)N(C3CCCCC3)C(=O)C12 (configuration not stated) | 790 nM
CN(C)CCOc1ccc2c(=O)cc(CCc3cccc(F)c3F)n(CC(=O)N(C)Cc3ccc(-c4ccc(C(F)(F)F)cc4)cc3)c2c1 | 1200 nM
CN1CCc2cc(O)c(NS(=O)(=O)c3ccc(-c4ccc(Cl)cc4)cc3)cc2CC1 | 770 nM
O=C1c2ccccc2-n2c1nc1ccccc1c2=O | 860 nM

SMILES | IC50
CC(C)(C)NCCN(Cc1ccc(-c2ccc(C(F)(F)F)cc2)cc1)C(=O)Cn1c(CCc2cccc(F)c2F)nc(=O)c2c1CCC2 | 950 nM
Oc1ccc(CCNc2nc(NCc3ccccc3-c3ccc(F)cc3)nc(N3CCNCC3)n2)cc1 | 1070 nM
CN1CCC(Oc2ccc(NC(=O)c3ccc4c(=O)n(Cc5ccccc5)cnc4c3)cc2Cl)CC1 | 950 nM
O=C(Nc1ccccc1)N1CCC(CN2CCOC(c3ccccc3)(c3ccccc3)C2)CC1 | 210 nM
Nc1cc(-c2ccc(Br)cc2O)nc2ccccc12 | 620 nM
COc1ccc(Cl)cc1N1CCN(CCCNC(=O)c2ccc(-c3nc4ccncc4[nH]3)c(Br)c2)CC1 | 1150 nM
O=C(Nc1cc(C(F)(F)F)cc(C(F)(F)F)c1)c1cccc([N+](=O)[O-])c1 | 890 nM
CCN(CC)c1nc(-c2ccccc2)cc(-c2ccccc2)c1C#N | 450 nM
Cc1cccc2[nH]c(-c3cccc(-c4cccc(NC(=O)c5cccnc5)c4)c3)nc12 | 230 nM
CCOc1c(OC)ccc2c1CCN(CCN1CCC(NC(=O)c3ccc(-c4cccc(C(F)(F)F)c4C(F)(F)F)cc3)CC1)C2 | 730 nM
COc1ccc(-c2ccc(S(=O)(=O)Nc3cc4c(cc3OC(C)C)CCN(C)CC4)cc2)cc1 | 690 nM
O=C(Nc1ccc(Oc2ccccc2)cc1)N(CCN1CCCC1)Cc1ccc(-c2ccc(CN3CCNCC3)cc2)cc1 | 890 nM
COc1nc(Nc2cccc(C)c2)nc(OC)n1 | 1010 nM
CCCC(=O)NC(c1cccs1)c1cc(Cl)c2cccnc2c1O (configuration not stated) | 850 nM
Cc1cc(C)cc(OCC(O)CN(Cc2cc(Cl)cc(Cl)c2)C(=O)Nc2ccc(Cl)cc2)c1 (configuration not stated) | 810 nM
COc1ccc2[nH]c(C(=O)Nc3ccc4nc(-c5ccccc5)[nH]c4c3)cc2c1 | 830 nM
Cc1ccc2c(C3=CCN(CCCCC4(C)C(=O)Nc5ccccc54)CC3)c(C)[nH]c2c1 (configuration not stated) | 370 nM
O=C(NC1CCCCC1)N(Cc1cccc(-c2ccc(CNCCc3ccccc3)cc2)c1)C1CCN(Cc2ccccc2)CC1 | 650 nM
O=C(c1ccc(F)cc1)N1CCOC(CCN2CCC(c3ccccc3)CC2)(c2ccc(Cl)c(Cl)c2)C1 (configuration not stated) | 750 nM
CCOc1ccc(C(=O)Nc2ccc(-c3nc4ccccc4[nH]3)cc2)cc1[N+](=O)[O-] | 590 nM
Cc1cccc(NC(=O)c2cnc(N3CCN(c4ccncc4)CC3)c(Cl)c2)c1 | 680 nM
CC[C@H]1CN2CC[C@@H]1C[C@H]2[C@H](O)c1ccnc2ccc(Cl)cc12 | 120 nM
CN(C)c1ccc(-c2nnc(Sc3ccc(C#N)c([N+](=O)[O-])c3)n2Cc2ccco2)cc1 | 850 nM
Cc1cccc(C(=O)Nc2ccnc(N3CCC(N(C)Cc4cccc(C#N)c4)CC3)c2)c1 | 1100 nM
Cc1cccc(C=NNc2cc(C)nc3ccc(F)cc23)n1 | 1000 nM

SMILES | IC50
COc1ccc2ncc(F)c(CCN3CC[C@H](NCc4cc(C#N)c5c(c4)OCCO5)[C@H](O)C3)c2c1 | 890 nM
c1ccc(CCNCc2ccc(-c3cccc(-c4nc5ccccc5[nH]4)c3)cc2)nc1 | 620 nM
CC(C)(C)c1ccc(CNC(=O)c2ccc(CNC3CCC(N)CC3)s2)cc1 (configuration not stated) | 530 nM
CC(=O)c1sc(Cc2nc3ccccc3s2)nc1C | 1070 nM
CN1CCC(NCc2cccc(-c3ccc(S(=O)(=O)NCc4ccccc4)cc3)c2)CC1 | 690 nM
O=C(NC(c1ccc(Cl)cc1)c1ccc2cccnc2c1O)c1ccccc1 (configuration not stated) | 560 nM
O=C(Cc1ccccc1)NC(Nc1ccc([N+](=O)[O-])cc1)C(Cl)(Cl)Cl (configuration not stated) | 970 nM
Cc1cc(OCC2CCN(c3ncc(C(=O)NC4CC4)cc3Cl)CC2)ccc1F | 790 nM
CN(C)CCCNc1ncnc2c1[nH]c1ccc(F)cc12 | 730 nM
CN(C)CCNC(=O)c1cccc(-c2cnc3ccc(NCc4ccc(Cl)c(Cl)c4)nn23)c1 | 700 nM
C/C=C/COc1ccc2ccccc2c1CNCCCCCCCCNCc1c(OC/C=C/C)ccc2ccccc12 | 910 nM
CC(C)(C)c1ccc(OC(=O)c2ccc(NC(=O)N[C@@H](Cc3ccc(O)cc3)C(=O)NC3CCN(Cc4ccc(O)cc4)C3)cc2)cc1 (some centres not stated) | 810 nM
CCOC(=O)c1cn(CC)c2cc(N(C)CCc3ccc(OC)c(OC)c3)c(F)cc2c1=O | 430 nM
CC(=O)Nc1ccc(CN(Cc2ccc(F)cc2)Cc2ccc3c(c2)OCO3)cc1 | 940 nM
CC(C)CCNC(=O)c1cc(C(=O)c2cc(F)ccc2O)cn(CCC(C)C)c1=O | 750 nM
Oc1ccc(CCCNc2nc(NCc3cccc4ccccc34)nc(N3CCCNCC3)n2)cc1 | 990 nM
Cc1cc(=O)c2cc(Oc3cccc(OC(F)(F)F)c3)ccc2[nH]1 | 860 nM
c1ccc(CN2CCC(NCc3ccc(-c4ccc(CNC5CCCC5)cc4)cc3)CC2)cc1 | 290 nM
Cc1cnc(Nc2cccnc2)nc1Nc1ccccc1C(=O)NC(C)C | 1200 nM
Cc1cc(NN=Cc2ccccc2F)c2cccc(C)c2n1 | 760 nM
Oc1ccc(CCNc2nc(NCc3ccccc3-c3ccc(C(F)(F)F)cc3)nc(N3CCCNCC3)n2)cc1 | 870 nM
Oc1ccc(-c2nc(-c3ccc4oc5ccc(-c6[nH]c(-c7ccc(O)cc7)nc6-c6ccccc6)cc5c4c3)c(-c3ccccc3)[nH]2)cc1 | 1110 nM
